For this assay, the target named is T1, SIRT1 (Homo sapiens, UniProt Q96EB6).
T1 sequence (Q96EB6 1-747): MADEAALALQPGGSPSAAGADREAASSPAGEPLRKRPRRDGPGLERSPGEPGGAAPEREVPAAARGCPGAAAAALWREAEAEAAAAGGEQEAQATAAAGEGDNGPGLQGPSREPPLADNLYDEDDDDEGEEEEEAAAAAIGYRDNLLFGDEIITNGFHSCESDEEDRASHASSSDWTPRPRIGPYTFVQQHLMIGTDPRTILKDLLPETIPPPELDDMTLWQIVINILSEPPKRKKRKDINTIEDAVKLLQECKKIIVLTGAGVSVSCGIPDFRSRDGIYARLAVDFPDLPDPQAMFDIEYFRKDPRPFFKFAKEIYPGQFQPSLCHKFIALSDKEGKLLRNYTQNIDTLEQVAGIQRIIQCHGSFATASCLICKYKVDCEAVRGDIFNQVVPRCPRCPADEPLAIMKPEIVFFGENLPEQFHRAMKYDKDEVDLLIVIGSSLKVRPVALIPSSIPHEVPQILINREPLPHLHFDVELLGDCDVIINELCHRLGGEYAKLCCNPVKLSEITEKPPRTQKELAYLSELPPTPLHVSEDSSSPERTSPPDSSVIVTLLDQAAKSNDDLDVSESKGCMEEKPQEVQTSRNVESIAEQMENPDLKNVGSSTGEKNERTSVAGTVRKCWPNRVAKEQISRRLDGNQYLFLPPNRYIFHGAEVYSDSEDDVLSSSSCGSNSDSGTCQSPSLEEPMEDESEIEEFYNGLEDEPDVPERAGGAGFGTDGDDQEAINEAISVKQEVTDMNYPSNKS
In words: Trp mass spectrometry assay of SIRT1 activity. The settings on record: Trp assay; for Trp EC1.5 (μM): concentration giving 150% activation of SIRT1; for Emax: percent maximum fold activation, read-out: Trp % Fold Act. The assay is classed as biochemical. The method, boiled down:
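Activation readout: EC1.5 (concentration raising activity 50% over control) and percent maximum activation, from mass-spec quantitation of OAADPR or deacetylated Trp peptide. Reaction: 0.5 μM acetylated Trp peptide, 120 μM βNAD+, 10 nM bacterially expressed N-His SIRT1, pH 7.5 HEPES buffer with […], 25 min at 25° C.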

`O=C(Nc1cccnn1)c1cnc2ccc(N3CC(F)(F)C3)nn12` [Compound 916]: the “Trp EC1.5 (μM)” value was “C (EC1.5>25 μM)” and the Emax was under 350%.
With `O=C(Nc1cc(OC[C@@H](O)CO)cnn1)c1cnc2ccc(N3CC[C@H](F)C3)nn12` [Compound 917], the “Trp EC1.5 (μM)” value is listed as “B (EC1.5 1-25 μM)” and the Emax is under 350%.
Take `COc1nccc(NC(=O)c2cnc3ccc(N4CC[C@H](F)C4)nn23)n1` [Compound 918]: the “Trp EC1.5 (μM)” value is listed as “B (EC1.5 1-25 μM)” and the Emax was under 350%.
Regarding `O=C(Nc1ccc(C(F)(F)F)nc1)c1cnc2ccc(N3CC[C@H](F)C3)nn12` [Compound 919], the “Trp EC1.5 (μM)” value is “C (EC1.5>25 μM)” and the Emax is under 350%.
In the case of `Cc1ccc(NC(=O)c2cnc3ccc(N4CC[C@H](F)C4)nn23)cn1` [Compound 920], the “Trp EC1.5 (μM)” value is given as “B (EC1.5 1-25 μM)” and the Emax was under 350%.
For `O=C(Nc1ccncn1)c1cnc2ccc(N3CC(F)(F)C3)nn12` [Compound 921], the “Trp EC1.5 (μM)” value was “C (EC1.5>25 μM)” and the Emax was under 350%.
As for `COc1cc(NC(=O)c2cnc3ccc(N4CC[C@H](F)C4)nn23)ncn1` [Compound 922], the “Trp EC1.5 (μM)” value is listed as “C (EC1.5>25 μM)” and the Emax was under 350%.
The matching figures for `CN(C)c1ccnc(NC(=O)c2cnc3ccc(N4CC[C@H](F)C4)nn23)n1` [Compound 923]: “A (EC1.5<1 μM)” and at least 350%.
Consider `CN(C)c1cnnc(NC(=O)c2cnc3ccc(N4CC[C@H](F)C4)nn23)c1` [Compound 924], for which the “Trp EC1.5 (μM)” value is reported as “B (EC1.5 1-25 μM)” and the Emax was under 350%.
The corresponding values for `O=C(Nc1cnccn1)c1cnc2ccc(N3CC(F)(F)C3)nn12` [Compound 926] are “C (EC1.5>25 μM)” and under 350%.
For the compound `O=C(Nc1ccccn1)c1cnc2ccc(N3CCC(F)(F)CC3)nn12` [Compound 927], the “Trp EC1.5 (μM)” value was “B (EC1.5 1-25 μM)” and the Emax is at least 350%.
Regarding `O=C(Nc1cccnc1)c1cnc2ccc(N3CCC(F)(F)CC3)nn12` [Compound 928], the “Trp EC1.5 (μM)” value was “B (EC1.5 1-25 μM)” and the Emax was under 350%.
On to `O=C(Nc1cncc(F)c1)c1cnc2ccc(N3CCC(F)(F)CC3)nn12` [Compound 929], for which the “Trp EC1.5 (μM)” value is recorded as “B (EC1.5 1-25 μM)” and the Emax was at least 350%.
As to `O=C(Nc1cccnn1)c1cnc2ccc(N3CCC(F)(F)CC3)nn12` [Compound 930], the “Trp EC1.5 (μM)” value is recorded as “B (EC1.5 1-25 μM)” and the Emax was at least 350%.
Turning to `O=C(Nc1ccncc1F)c1cnc2ccc(N3CCCC(C(F)(F)F)C3)nn12` (centres unmarked) [Compound 931], the “Trp EC1.5 (μM)” value is recorded as “A (EC1.5<1 μM)” and the Emax was at least 350%.
With `O=C(Nc1cccnc1)c1cnc2ccc(N3CCCC(C(F)(F)F)C3)nn12` (centres unmarked) [Compound 932], the “Trp EC1.5 (μM)” value is listed as “A (EC1.5<1 μM)” and the Emax was at least 350%.
Consider `CO[C@H]1CCN(c2ccc3ncc(C(=O)Nc4ccccn4)n3n2)C1` [Compound 933], for which the “Trp EC1.5 (μM)” value is “B (EC1.5 1-25 μM)” and the Emax was under 350%.
For `CO[C@H]1CCN(c2ccc3ncc(C(=O)Nc4cccnc4)n3n2)C1` [Compound 934], the “Trp EC1.5 (μM)” value is “B (EC1.5 1-25 μM)” and the Emax is under 350%.
For `CO[C@H]1CCN(c2ccc3ncc(C(=O)Nc4ccc(F)cn4)n3n2)C1` [Compound 935], the “Trp EC1.5 (μM)” value is “B (EC1.5 1-25 μM)” and the Emax was under 350%.
Take `CO[C@H]1CCN(c2ccc3ncc(C(=O)Nc4ccncc4F)n3n2)C1` [Compound 936]: the “Trp EC1.5 (μM)” value was “B (EC1.5 1-25 μM)” and the Emax was under 350%.
For the compound `O=C(Nc1cccnc1)c1cnn2ccc(N3CCCCC3C(F)(F)F)nc12` (centres unmarked) [Compound 945, N-(pyridin-3-yl)-5-(2-(trifluoromethyl)piperidin-1-yl)pyrazolo[1,5-a]pyrimidine-3-carboxamide], the “Trp EC1.5 (μM)” value is on record as “A (EC1.5<1 μM)” and the Emax was at least 350%.
Take `CN1CCN(c2ccc3ncc(C(=O)Nc4cccnc4)n3n2)CC1` [Compound 946]: the “Trp EC1.5 (μM)” value is “C (EC1.5>25 μM)” and the Emax was under 350%.
As to `CN1CCN(c2ccc3ncc(C(=O)Nc4ccc(F)cn4)n3n2)CC1` [Compound 947], the Emax is under 350%.
In the case of `CN1CCN(c2ccc3ncc(C(=O)Nc4ccccn4)n3n2)CC1` [Compound 948], the Emax is under 350%.
Regarding `CN1CCN(c2ccc3ncc(C(=O)Nc4ccncc4F)n3n2)CC1` [Compound 949], the Emax is under 350%.
As for `CN1CCN(c2ccc3ncc(C(=O)Nc4cccnn4)n3n2)CC1` [Compound 950], the Emax was under 350%.
Regarding `CN1CCN(c2ccc3ncc(C(=O)Nc4cncc(F)c4)n3n2)CC1` [Compound 951], the Emax is under 350%.
Still for that read-out and setting: the value for `CC1(C)CCN(c2ccc3ncc(C(=O)Nc4ccccn4)n3n2)C1` [Compound 952] was at least 350%; that for `CC1(C)CCN(c2ccc3ncc(C(=O)Nc4cccnc4)n3n2)C1` [Compound 953] was at least 350%.
As for `CC1(C)CCN(c2ccc3ncc(C(=O)Nc4ccc(F)cn4)n3n2)C1` [Compound 954], the Emax is under 350%.
On the same count and under the same terms, with `CC1(C)CCN(c2ccc3ncc(C(=O)Nc4cccnn4)n3n2)C1` [Compound 955] the figure was at least 350%; with `CC1(C)CCN(c2ccc3ncc(C(=O)Nc4cncc(F)c4)n3n2)C1` [Compound 956], under 350%.
Regarding `O=C(Nc1ccccn1)c1cnn2ccc(N3CCCCC3C(F)(F)F)nc12` (centres unmarked) [Compound 957], the Emax was at least 350%.
As to `O=C(Nc1cccnc1)c1cnc2ccc(N3CCC(C(F)(F)F)C3)nn12` (centres unmarked) [Compound 958], the Emax was at least 350%.
Turning to `O=C(Nc1cncc(F)c1)c1cnc2ccc(N3CCC(C(F)(F)F)C3)nn12` (centres unmarked) [Compound 959], the Emax is at least 350%.
As to `CC1(C)CCN(c2ccc3ncc(C(=O)Nc4ccncc4F)n3n2)C1` [Compound 960], the Emax is under 350%.
As for `O=C(Nc1ccncn1)c1cnc2ccc(N3CCOCC3)nn12` [Compound 961], the Emax was under 350%.
Still for that read-out and setting: with `O=C(Nc1ccc(F)cn1)c1cnc2ccc(N3CCC(F)(F)CC3)nn12` [Compound 962] the figure was under 350%; with `O=C(Nc1ccncc1F)c1cnc2ccc(N3CCC(F)(F)CC3)nn12` [Compound 963], under 350%.
For the compound `O=C(Nc1ccncn1)c1cnc2ccc(N3CCC(F)(F)CC3)nn12` [Compound 964], the Emax was under 350%.
Still for that read-out and setting: with `Cc1nc(NC(=O)c2cnn3ccc(N4CCCCC4C(F)(F)F)nc23)sc1C` (centres unmarked) [Compound 965] the figure was at least 350%.
Consider `O=C(Nc1cccnc1)c1cnc2ccc(N3CCCC3C(F)(F)F)nn12` (centres unmarked) [Compound 966, N-(pyridin-3-yl)-6-(2-(trifluoromethyl)pyrrolidin-1-yl)imidazo[1,2-b]pyridazine-3-carboxamide], for which the “Trp EC1.5 (μM)” value was “A (EC1.5<1 μM)” and the Emax was at least 350%.
For `O=C(Nc1cncc(F)c1)c1cnc2ccc(N3CCCC3C(F)(F)F)nn12` (centres unmarked) [Compound 967], the Emax was at least 350%.
Turning to `O=C(Nc1cccnn1)c1cnc2ccc(N3CCCC3C(F)(F)F)nn12` (centres unmarked) [Compound 968], the Emax was at least 350%.
Same read-out and setting: the value for `Cc1nc(NC(=O)c2cnc3ccc(N4CCCC4C(F)(F)F)nn23)sc1C` (centres unmarked) [Compound 969] was at least 350%; that for `O=C(Nc1ccncn1)c1cnc2ccc(N3CCCC3C(F)(F)F)nn12` (centres unmarked) [Compound 970, N-(pyrimidin-4-yl)-6-(2-(trifluoromethyl)pyrrolidin-1-yl)imidazo[1,2-b]pyridazine-3-carboxamide] was at least 350%.
As to `CN1CCN(c2ccc3ncc(C(=O)Nc4ccncn4)n3n2)CC1` [Compound 971], the Emax is under 350%.
As for `CC1(C)CCN(c2ccc3ncc(C(=O)Nc4ccncn4)n3n2)C1` [Compound 972], the Emax was under 350%.
For `CO[C@H]1CCN(c2ccc3ncc(C(=O)Nc4ccncn4)n3n2)C1` [Compound 973, (S)-6-(3-methoxypyrrolidin-1-yl)-N-(pyrimidin-4-yl)imidazo[1,2-b]pyridazine-3-carboxamide], the Emax is under 350%.
In the case of `O=C(Nc1ccccn1)c1cnc2ccc(N3CCCC3C(F)(F)F)nn12` (centres unmarked) [Compound 974], the Emax is at least 350%.
Consider `CC1CCN(c2ccc3ncc(C(=O)Nc4ccccn4)n3n2)C1` (centres unmarked) [Compound 975], for which the Emax is under 350%.
As to `CC1CCN(c2ccc3ncc(C(=O)Nc4cccnc4)n3n2)C1` (centres unmarked) [Compound 976], the Emax is at least 350%.
The same measure, in the same setting: with `CC1CCN(c2ccc3ncc(C(=O)Nc4ccc(F)cn4)n3n2)C1` (centres unmarked) [Compound 977] the figure was under 350%; with `CC1CCN(c2ccc3ncc(C(=O)Nc4cccnn4)n3n2)C1` (centres unmarked) [Compound 978], at least 350%.
